Laboratory results published in US20120028968A1 (priority 2009, published 2012).
Structures can show the parent of a compound that is named as a salt.

Molecular target: α7-subtype of nicotinic receptors (Rattus norvegicus, UniProt Q05941)
Assay: biochemical
Type: binding

Sequence of α7-subtype of nicotinic receptors (Q05941 23-502): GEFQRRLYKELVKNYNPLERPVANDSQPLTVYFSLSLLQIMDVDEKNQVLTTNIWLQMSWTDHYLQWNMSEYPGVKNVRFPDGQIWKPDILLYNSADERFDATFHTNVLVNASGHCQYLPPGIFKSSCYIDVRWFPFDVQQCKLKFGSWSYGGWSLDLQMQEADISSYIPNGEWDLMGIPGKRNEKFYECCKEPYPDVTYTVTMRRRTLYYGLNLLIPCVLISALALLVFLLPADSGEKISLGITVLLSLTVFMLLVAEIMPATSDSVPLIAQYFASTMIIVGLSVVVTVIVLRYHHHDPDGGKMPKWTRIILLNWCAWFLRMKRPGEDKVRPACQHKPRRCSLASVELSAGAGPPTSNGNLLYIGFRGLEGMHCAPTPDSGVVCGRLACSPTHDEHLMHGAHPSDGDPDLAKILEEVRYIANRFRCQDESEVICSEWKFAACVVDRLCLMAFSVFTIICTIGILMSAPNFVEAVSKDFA

**Q.** Which IC50 does the source give for c1ccc2c(c1)oc1c(-c3nnc(N4CCN5CCC4CC5)o3)cccc12 [Compound 1, 4-(5-Dibenzofuran-4-yl-[1,3,4]oxadiazol-2-yl)-1,4-diaza-bicyclo[3.2.2]nonane fumaric acid salt] here?
**A.** 16 nM
